The conditions of series [1]: active doses; cited from earlier work.
Series [2] can be described thus: Surface wettability (water contact angle). It is filed as physicochemical. To be noted: at any pH.
For series [3] the following is noted: orally administered; cited from earlier work.
The nature of series [4]: Dissolution rate in buffer solution HCl-KCl pH 1.5. To be noted: for Substance dissolved (concentration of tomoxiprole): buffer HCl-KCl pH 1.5. It is filed as physicochemical. As to the method: The dissolution rate of the complex tomoxiprole-2-hydroxypropyl-beta-cyclodextrin obtained in Example 1 is determined by the following method.
In a flask provided with magnetic mixer 600 mg of tomoxiprole-2-hydroxypropyl-beta-cyclodextrin complex (corresponding to 100 mg of tomoxiprole) are added to 10 ml of a buffer solution HCl—KCl pH 1.5. Samples of the suspension are collected at intervals of time, clarified by centrifugation and the tomoxiprole concentration in the clear supernatant is determined by UV absorption at 328 nm.
The method was the same of that described above, with the exception that 100 mg of tomoxiprole were added instead of 600 mg of complex tomoxiprole/HPBCD

The nature of the next series: in vivo. The conditions noted are these: rat, po, 5 mg/kg. Here is the method: To assess whether the faster dissolution rate observed for the complex actually corresponds to a faster in vivo absorption, the pharmacokinetic behaviour of tomoxiprole (TMX) and tomoxiprole-2-hydroxypropyl-beta-cyclodextrin complex (TMX/HPBCD) in rats have been compared.
Experimental design: Two groups of four rats each have been used. To the rats of each group was orally given either a dose of 5 mg/Kg of tomoxiprole or a dose of complex tomoxiprole-2-hydroxypropyl-beta-ciclodestrin corresponding to 5 mg/Kg of active substance. […] Samples of blood were collected at 0.3, 0.6, 1, 1.5, 2 and 6 hours, and plasma separated by centrifugation. Sample processing and HPLC analyses were performed as previously described (A. Bernareggi et al. J. liquid chromatography 1984, 7, 2093-2101). The pharmacokinetic parameters calculated from the plasma levels of tomoxiprole observed with the two formulations are reported in the following Table 2

Regarding `COc1ccc(-c2nc3c4ccccc4ccc3n2C(C)C)cc1` [Tomoxiprole crystals, 2-(4-methoxyphenyl)-3-(1-methylethyl)-3H-naphth[1,2-d] imidazole], the Ulcerogenic activity result in series [1] is given as “devoid of ulcerogenic activity”. The compound further displayed a Water contact angle in series [2] of 81 °. In addition, the “Time of maximum concentration in the blood after administration” value in series [3] is “over one hour”. The “Time at which the saturation concentration is reached” value in series [4] (buffer pH 1.5) is given as “over 8 min”. Moreover, the “Substance dissolved (concentration of tomoxiprole)” value in series [4] (time 0.5 min) was found to be 1 mg/mL; in series [4] (time 2 min), 3 mg/mL; in series [4] (time 4 min) it was 4 mg/mL; in series [4] (time 8 min), 4.9 mg/mL; in series [4] (time 12 min), 5.2 mg/mL. In “in vivo”, this compound registered an AUC of 46 ng·h/mL. In the series “in vivo”, this compound registered an AUC(0-t) of 1170 ng·h/mL. Besides, the concentration in the series “in vivo” peaked (Cmax) at 220 ng/mL. Moreover, the Tmax in the series “in vivo” is 1.5 h.

These data come from US8791269B2, “Complex of amorphous tomoxiprole and cyclodextrin with fast dissolution rate and process for the preparation thereof” (Fondazione Istituto Insubrico di Ricerca per la Vita, priority 2011, dated 2014).
